Values after ≈ are worked out from the molar mass of the structure shown. Read-outs that look alike come from different tables or passages of the source. A value given as a limit tells only on which side of the number the result lay.

Series [1] deals with Aspergillus flavus CCM 8363. Put plainly: Antifungal microdilution broth method, AFla. The series is classed as cell-based. Particulars: CCM8363, read after 48 h (filamentous fungi), read-out: MIC AFla. The method, then:
6. In vitro antifungal activity screening
Antifungal activity evaluation was performed using a microdilution broth method according to EUCAST instructions (The European Committee on Antimicrobial Susceptibility Testing) with slight modifications. Eight fungal strains (four yeast and four mould strains) were used for antifungal […]
and Trichophyton interdigitale CCM 8377 (ATCC 9533). Tested strains were purchased from the Czech Collection of Microorganisms (CCM, Brno, Czech Republic) or from the American Type Collection Cultures (ATCC, Manassas, VA, USA). Tested compounds were dissolved in DMSO and diluted in a twofold manner with RPMI 1640 medium, with glutamine and 2% glucose, buffered to pH 7.0 with MOPS (3-morpholinopropane-1-sulfonic acid). The final concentration of DMSO in the testing […]
Static incubation was performed in the dark and in humid atmosphere, at 35±2 °C, for 24 and 48 h (72 and 120 h for Trichophyton interdigitale respectively). Positive controls consisted of test microbe solely, while negative controls consisted of cultivation medium and DMSO. Visual inspection and metabolic activity indicator, Alamar Blue (ThermoFisher Scientific), were used for MIC endpoint evaluation. The internal quality standards, amphotericin B (Sigma-Aldrich) and voriconazole (Toronto research Chemicals, CA) were involved in assays (for MIC of standards see Table S5). All experiments were conducted in duplicates.
For the results to be valid, the difference in MIC for one compound determined from two parallel measurements must not be greater than one step on the dilution scale.

For series [2], the system named is Staphylococcus epidermidis CCM 4418 (ATCC 12228). Put plainly: Antibacterial microdilution broth method, SE. The series is classed as cell-based. Particulars: 24 h, read-out: MIC SE. A general note: In broth dilution the organism is exposed to a series of concentrations in liquid medium.
Series [3] concerns Aspergillus fumigatus ATCC 204305. Put plainly: Antifungal microdilution broth method, AF. The series is classed as cell-based. The note with it: ATCC204305, 48 h, read-out: MIC AF.
Series [4] has as its system Lichtheimia corymbifera CCM 8077. In words: Antifungal microdilution broth method, LC. The note with it: CCM8077, 48 h, read-out: MIC LC. The series is classed as cell-based.
Series [5] deals with Candida parapsilosis CCM 8260 (ATCC 22019). In words: Antifungal microdilution broth method, CP. The series is classed as cell-based. Particulars: Lodderomyces parapsilosis, 24 h, read-out: MIC CP.
Series [6] has as its system Candida albicans CCM 8320 (ATCC 24433). In words: Antifungal microdilution broth method, CA. The series is classed as cell-based. Particulars: 24 h, read-out: MIC CA.
The subject of series [7] is M. smegmatis DSM 43465 (ATCC 607). In words: Microplate Alamar Blue Assay (MABA) microdilution, M. smegmatis. The series is classed as cell-based, Mycobacterium smegmatis. Particulars: Mycolicibacterium smegmatis. Background: The colour change of resazurin is a common sign of viable cells or microbes.
Series [8] deals with Candida tropicalis CCM 8264 (ATCC 750). In words: Antifungal microdilution broth method, CT. The series is classed as cell-based. The note with it: 24 h, read-out: MIC CT.
Series [9] concerns Klebsiella pneumoniae CCM 4415 (ATCC 10031). In words: Antibacterial microdilution broth method, KP. Particulars: read after 24 h of incubation.
The subject of series [10] is Mtb H37Ra ITM-M006710 (ATCC 9431). In words: Microplate Alamar Blue Assay (MABA) microdilution, Mtb H37Ra. The note with it: Mycobacterium tuberculosis. The series is classed as cell-based, Mycobacterium tuberculosis.
Series [11] relates to Candida krusei CCM 8271 (ATCC 6258). In words: Antifungal microdilution broth method, CK. The series is classed as cell-based. The note with it: Pichia kudriavzevii, 24 h, read-out: MIC CK.
The test system of series [12] is Mycobacterium aurum DSM 43999 (ATCC 23366). Put plainly: Microplate Alamar Blue Assay (MABA) microdilution, M. aurum. The series is classed as cell-based. Particulars: Mycolicibacterium aurum.
In series [13] the test system is Trichophyton interdigitale CCM 8377 (ATCC 9533). Put plainly: Antifungal microdilution broth method, TI. The series is classed as cell-based. Particulars: 48 h, read-out: MIC TI.
Where [14] appears, read: pH 6, read-out: MIC M. smegmatis µg/mL.
Setting [15] is: pH 6.6, read-out: MIC M. smegmatis.
[16] abbreviates: pH 6.6, read-out: MIC Mtb H37Ra.
Setting [17] is: pH 6, calculated from µg/mL, read-out: MIC Mtb H37Ra.
The mark [18] stands for this setting: pH 6, read-out: MIC M. aurum µg/mL.

For the molecule `CCOC(=O)CNC(=O)c1cnccn1` [PC-Gly-Et, ethyl (pyrazine-2-carbonyl)glycinate], the MIC in series [1], in [2], in series [3], in series [4], in series [5] and in [6] was more than 500 µM each time. Moreover, the MIC in [7] (setting [14]) is not below 125 µg/mL; in [7] (setting [15]) it was 250 µg/mL (≈ 1200 µM); in [8], more than 500 µM; in series [10] (pH 6), not below 125 µg/mL; in series [10] (pH 6, read-out: MIC Mtb H37Ra) it was not below 125 µg/mL; in series [10] (setting [16]), not below 500 µg/mL. Besides, the MIC is not below 598 µM in [10] (setting [17]); more than 500 µM in series [11]; not below 125 µg/mL in series [12] (setting [18]); not below 500 µg/mL in series [12] (pH 6.6, read-out: MIC M. aurum); more than 500 µM in series [13]. For the same molecule, the “MIC KP” value in [9] is more than 500 µM.
Consider `COC(=O)[C@H](NC(=O)c1cnccn1)[C@H](C)O` [PC-D-Thr-Me, methyl (pyrazine-2-carbonyl)-D-threoninate], for which the MIC in series [1], in [2], in series [3], in series [4], in series [5] and in series [6] was more than 500 µM throughout. Besides, the MIC was not below 500 µg/mL in series [7] (setting [14]); not below 500 µg/mL in series [7] (setting [15]); more than 500 µM in series [8]; not below 500 µg/mL in series [10] (pH 6); not below 500 µg/mL in series [10] (pH 6, read-out: MIC Mtb H37Ra); not below 500 µg/mL in series [10] (setting [16]). Also, the MIC in series [10] (setting [17]) is not below 2090 µM; in [11] it was more than 500 µM; in [12] (setting [18]) it was not below 500 µg/mL; in series [12] (pH 6.6, read-out: MIC M. aurum), not below 500 µg/mL; in series [13], more than 500 µM. For the same molecule, the “MIC KP” value in series [9] is more than 500 µM.
On to `COC(=O)[C@@H](Cc1ccc(O)cc1)NC(=O)c1cnccn1` [PC-D-Tyr-Me, methyl (pyrazine-2-carbonyl)-D-tyrosinate], for which the MIC in series [1], in series [2], in [3], in [4], in series [5] and in [6] was more than 500 µM in each case. For the same molecule, the MIC in series [7] (setting [14]) is not below 500 µg/mL; in series [7] (setting [15]) it was not below 500 µg/mL; in series [8], more than 500 µM; in series [10] (pH 6), 125 µg/mL; in series [10] (pH 6, read-out: MIC Mtb H37Ra) it was 125 µg/mL; in [10] (setting [16]), not below 500 µg/mL. Besides, the MIC is 415 µM in [10] (setting [17]); more than 500 µM in series [11]; not below 250 µg/mL in series [12] (setting [18]); not below 500 µg/mL in series [12] (pH 6.6, read-out: MIC M. aurum); more than 500 µM in series [13]. Also, the “MIC KP” value in series [9] is reported as more than 500 µM.
For `CCOC(=O)CC[C@H](NC(=O)c1cnccn1)C(=O)OCC` [PC-L-Glu-diEt, diethyl (pyrazine-2-carbonyl)-L-glutamate], the MIC in series [1], in series [2], in series [3], in [4], in [5] and in series [6] was more than 500 µM throughout. Moreover, the MIC is not below 500 µg/mL in series [7] (setting [14]); not below 500 µg/mL in [7] (setting [15]); more than 500 µM in series [8]; 31.2 µg/mL in series [10] (pH 6); 31.2 µg/mL in series [10] (pH 6, read-out: MIC Mtb H37Ra); not below 500 µg/mL in series [10] (setting [16]). Further, the MIC is 101 µM in series [10] (setting [17]); more than 500 µM in series [11]; not below 500 µg/mL in series [12] (setting [18]); not below 500 µg/mL in series [12] (pH 6.6, read-out: MIC M. aurum); more than 500 µM in [13]. In addition, in [9], the “MIC KP” value was more than 500 µM.
`COC(=O)CC[C@@H](NC(=O)c1cnccn1)C(=O)OC` [PC-D-Glu-diMe, dimethyl (pyrazine-2-carbonyl)-D-glutamate]: the MIC in series [1], in series [2], in series [3], in [4], in [5] and in series [6] was more than 500 µM throughout. The MIC is not below 500 µg/mL in series [7] (setting [14]); not below 500 µg/mL in [7] (setting [15]); more than 500 µM in series [8]; not below 500 µg/mL in series [10] (pH 6); not below 500 µg/mL in series [10] (pH 6, read-out: MIC Mtb H37Ra); not below 500 µg/mL in [10] (setting [16]). Besides, the MIC was not below 1780 µM in [10] (setting [17]); more than 500 µM in series [11]; not below 500 µg/mL in [12] (setting [18]); not below 500 µg/mL in series [12] (pH 6.6, read-out: MIC M. aurum); more than 500 µM in [13]. Moreover, the “MIC KP” value in [9] is more than 500 µM.
As to `COC(=O)[C@H](CO)NC(=O)c1cnccn1` [PC-L-Ser-Me, methyl (pyrazine-2-carbonyl)-L-serinate], the MIC in series [1], in series [2], in series [3], in series [4], in series [5] and in [6] was more than 500 µM each time. In addition, the MIC in series [7] (setting [14]) is not below 500 µg/mL; in series [7] (setting [15]) it was not below 500 µg/mL; in [8] it was more than 500 µM; in series [10] (pH 6), not below 500 µg/mL; in series [10] (pH 6, read-out: MIC Mtb H37Ra), not below 500 µg/mL; in series [10] (setting [16]), not below 500 µg/mL. Besides, the MIC in series [10] (setting [17]) is not below 2220 µM; in [11], more than 500 µM; in series [12] (setting [18]), not below 500 µg/mL; in series [12] (pH 6.6, read-out: MIC M. aurum) it was not below 500 µg/mL; in [13], more than 500 µM. Also, in series [9], the “MIC KP” value is given as more than 500 µM.
Take `COC(=O)[C@H](NC(=O)c1cnccn1)C(C)C` [PC-D-Val-Me, methyl (pyrazine-2-carbonyl)-D-valinate]: the MIC in series [1], in series [2], in series [3], in [4], in series [5] and in series [6] was more than 500 µM throughout. The MIC in [7] (setting [14]) was not below 125 µg/mL; in series [7] (setting [15]), not below 500 µg/mL; in series [8], more than 500 µM; in [10] (pH 6), not below 125 µg/mL; in series [10] (pH 6, read-out: MIC Mtb H37Ra) it was not below 125 µg/mL; in series [10] (setting [16]), not below 500 µg/mL. In addition, the MIC in [10] (setting [17]) was not below 527 µM; in series [11] it was more than 500 µM; in [12] (setting [18]), not below 125 µg/mL; in series [12] (pH 6.6, read-out: MIC M. aurum), not below 500 µg/mL; in series [13], more than 500 µM. The “MIC KP” value in series [9] is more than 500 µM.
For the molecule `COC(=O)[C@H](NC(=O)c1cnccn1)[C@H](C)OC(C)(C)C` [PC-D-OtBu-Thr-Me, methyl O-(tert-butyl)-N-(pyrazine-2-carbonyl)-D-threoninate], the MIC in [1], in series [2], in [3], in [4], in series [5] and in series [6] was more than 500 µM each time. Moreover, the MIC in [7] (setting [14]) is not below 500 µg/mL; in series [7] (setting [15]), not below 500 µg/mL; in series [8], more than 500 µM; in series [10] (pH 6), 62.5 µg/mL; in series [10] (pH 6, read-out: MIC Mtb H37Ra) it was 62.5 µg/mL; in series [10] (setting [16]) it was not below 500 µg/mL. Moreover, the MIC in series [10] (setting [17]) is 212 µM; in series [11], more than 500 µM; in [12] (setting [18]), not below 500 µg/mL; in [12] (pH 6.6, read-out: MIC M. aurum), not below 500 µg/mL; in [13] it was more than 500 µM. In addition, the “MIC KP” value in series [9] was more than 500 µM.

The values above are taken from publication PMC7181131, “N-Pyrazinoyl Substituted Amino Acids as Potential Antimycobacterial Agents—the Synthesis and Biological Evaluation of Enantiomers” (Molecules, 2020).
